In ChEMBL document CHEMBL1146098, “Synthesis and characterization of 3-arylquinazolinone and 3-arylquinazolinethione derivatives as selective estrogen receptor beta modulators” (J Med Chem, 2006) one finds IC50 and EC50 data, which are given here for 48 compounds.

Assay [1] concerns the target T1, Estrogen receptor beta (Homo sapiens, UniProt Q92731).
Assay [2] has as its target T2, Estrogen receptor (Homo sapiens, UniProt P03372).
T2 sequence (P03372 whole entry): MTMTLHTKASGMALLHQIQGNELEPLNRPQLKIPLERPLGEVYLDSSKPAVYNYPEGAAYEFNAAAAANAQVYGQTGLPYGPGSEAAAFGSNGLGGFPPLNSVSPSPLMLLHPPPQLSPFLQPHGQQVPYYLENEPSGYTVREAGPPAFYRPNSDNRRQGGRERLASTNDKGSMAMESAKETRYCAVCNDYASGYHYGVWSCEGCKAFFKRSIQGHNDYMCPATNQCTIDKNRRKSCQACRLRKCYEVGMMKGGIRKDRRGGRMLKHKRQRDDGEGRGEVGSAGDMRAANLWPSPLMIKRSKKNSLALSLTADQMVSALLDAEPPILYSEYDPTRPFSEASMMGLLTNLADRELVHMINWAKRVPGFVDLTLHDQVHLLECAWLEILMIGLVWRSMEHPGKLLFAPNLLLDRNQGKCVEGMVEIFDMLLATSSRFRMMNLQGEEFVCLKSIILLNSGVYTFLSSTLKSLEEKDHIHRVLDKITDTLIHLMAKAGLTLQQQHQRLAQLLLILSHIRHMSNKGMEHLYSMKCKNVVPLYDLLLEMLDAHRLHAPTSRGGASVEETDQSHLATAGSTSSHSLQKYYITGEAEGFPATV
Description: Displacement of [3H]estrone from ER alpha

In assay [3] the target is T1, Estrogen receptor beta. The source holds these as a separate data set.
Description: Inhibition of ER beta-mediated transactivation of ERE in HeLa cell luciferase assay

The structures appear in SMILES notation.

T1 sequence (Q92731 whole entry): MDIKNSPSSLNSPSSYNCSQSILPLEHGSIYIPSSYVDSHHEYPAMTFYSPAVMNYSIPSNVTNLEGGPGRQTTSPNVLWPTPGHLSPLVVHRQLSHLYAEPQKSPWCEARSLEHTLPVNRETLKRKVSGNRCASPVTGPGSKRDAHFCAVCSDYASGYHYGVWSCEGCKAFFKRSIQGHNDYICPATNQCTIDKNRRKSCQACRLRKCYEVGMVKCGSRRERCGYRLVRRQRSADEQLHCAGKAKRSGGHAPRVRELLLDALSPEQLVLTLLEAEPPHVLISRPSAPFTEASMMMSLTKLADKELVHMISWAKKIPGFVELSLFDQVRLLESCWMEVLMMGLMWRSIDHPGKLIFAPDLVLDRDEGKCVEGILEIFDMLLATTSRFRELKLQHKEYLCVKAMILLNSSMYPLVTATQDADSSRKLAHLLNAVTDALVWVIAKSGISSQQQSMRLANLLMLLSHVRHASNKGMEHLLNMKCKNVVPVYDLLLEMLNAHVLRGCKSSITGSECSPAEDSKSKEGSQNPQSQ

As a reminder, the IC50 is the point on the concentration scale where inhibition reaches its midpoint. By EC50 is commonly meant the midpoint of the concentration-response curve. Higher therefore signals weaker potency. As for `Oc1ccc(-c2coc3cc(O)cc(O)c3c2=S)cc1` [THIOGENISTEIN], the IC50 in assay [1] is 1.34 µM; in assay [2] it was 55.9 µM. The EC50 in assay [3] is 0.014 µM.

In assay [3], `COC(=O)c1cc(OC(C)=O)cc2ncn(-c3ccc(OC(C)=O)cc3)c(=S)c12` had an EC50 of 11.3 µM.

In the case of `O=c1c2c(O)cc(O)cc2ncn1-c1cccc(O)c1`, the IC50 came out at 3.84 µM in assay [1] and 43.8 µM in assay [2]. Further, it took 0.904 µM to reach a half-maximal effect in assay [3] (EC50).

Regarding `Cc1c(O)cc(O)c2c(=O)n(-c3ccc(O)cc3)cnc12`, the IC50 in assay [1] is 1.27 µM; in assay [2], 15.3 µM. The EC50 in assay [3] was determined as 8.87 µM.

Regarding `CCCc1nc2cc(O)cc(O)c2c(=O)n1-c1ccc(O)cc1`, the IC50 in assay [1] was found to be 3.22 µM; in assay [2] it was 5.36 µM.

`O=c1c2c(O)cc(O)cc2nc(Cl)n1-c1ccc(O)cc1` gave a half-maximal inhibitory concentration (IC50) in assay [1] of 13.4 µM. The compound further displayed an EC50 in assay [3] of 8.78 µM.

As for `Nc1cc(O)cc2ncn(-c3ccc(O)cc3)c(=O)c12`, the IC50 in assay [1] was found to be 8.24 µM; in assay [2] it was 15.5 µM. Also, the EC50 in assay [3] turned out to be 2.06 µM.

`O=c1c2c(-c3ccccc3)cc(O)cc2ncn1-c1ccc(O)cc1`: the results for the IC50 in assay [1] and in assay [2] were 30.7 µM and 102 µM, respectively. In assay [3], this compound gave an EC50 of 11.7 µM.

`C=Cc1cc(O)cc2ncn(-c3ccc(O)cc3)c(=O)c12` had an IC50 in assay [1] of 17 µM. In assay [3], this compound showed an EC50 of 0.75 µM.

On to `Cc1cc(O)ccc1-n1cnc2cc(O)cc(O)c2c1=O`, for which the IC50 worked out at 0.422 µM in assay [1] and 4.38 µM in assay [2]. The compound further returned a concentration for a half-maximal effect (EC50) in assay [3] of 0.111 µM.

Consider `CCc1nc2cc(O)cc(O)c2c(=O)n1-c1ccc(O)cc1`, for which the IC50 in assay [1] was 5.75 µM; in assay [2] it was 19.4 µM. The compound further gave a concentration giving a half-maximal response (EC50) in assay [3] of 1.26 µM.

Regarding `O=c1c2c(O)c(I)c(O)cc2ncn1-c1ccc(O)cc1`, the IC50 in assay [1] was found to be 3.97 µM. In assay [3], the EC50 came to 1.64 µM.

With `Cc1cc(-n2cnc3cc(O)cc(O)c3c2=S)ccc1O`, the half-maximal inhibitory concentration (IC50) was 0.658 µM in assay [1] and 2.85 µM in assay [2]. Moreover, the EC50 in assay [3] worked out at 0.16 µM.

Consider `O=c1c2c(O)cc(O)cc2ncn1-c1ccc(O)cc1`, for which the IC50 in assay [1] was 0.179 µM; in assay [2], 11.1 µM. In assay [3], the EC50 worked out at 0.076 µM.

In the case of `Cc1nc2cc(O)cc(O)c2c(=O)n1-c1ccc(O)cc1`, the IC50 in assay [1] came to 11.4 µM; in assay [2] it was 33.2 µM. This compound returned an EC50 in assay [3] of 1.58 µM.

On to `CCc1cc(O)cc2ncn(-c3ccc(O)cc3)c(=O)c12`, for which the values for the IC50 in assay [1] and in assay [2] were 0.265 µM and 13.2 µM, respectively. For the same compound, the response in assay [3] was half-maximal at 0.062 µM (EC50).

Take `O=c1c2c(OS(=O)(=O)C(F)(F)F)cc(O)cc2ncn1-c1ccc(O)cc1`: half-maximal inhibition in assay [1] (IC50) was put at 12 µM. This compound yielded an EC50 in assay [3] of 3.8 µM.

As to `Oc1ccc(-n2cnc3cc(O)cc(O)c3c2=S)nc1`, the IC50 in assay [1] worked out at 0.515 µM; in assay [2], 27.6 µM. This compound also registered a 50% effective concentration (EC50) in assay [3] of 0.173 µM.

In turn, `O=c1c2c(O)c(I)c(O)c(I)c2ncn1-c1ccc(O)cc1` returned an IC50 in assay [1] of 12.3 µM. Besides, the EC50 in assay [3] worked out at 1.97 µM.

The compound `O=c1c2c(O)cc(O)c(I)c2ncn1-c1ccc(O)cc1` registered an IC50 in assay [1] of 4.08 µM. In assay [3], this compound gave an EC50 of 0.593 µM.

`O=c1c2c(O)cc(O)cc2ncn1-c1ccccc1`: the results for the concentration for half-maximal inhibition (IC50) in assay [1] and in assay [2] were 18.5 µM and 75.6 µM, respectively. Moreover, a half-maximal response in assay [3] (EC50) required 1.72 µM.

With `COc1cc(O)c2c(=O)n(-c3ccc(O)cc3)cnc2c1`, the results for the IC50 in assay [1] and in assay [2] were 9.53 µM and 26 µM, respectively. Moreover, in assay [3], it took 8.51 µM to reach a half-maximal effect (EC50).

Turning to `COc1cc(O)c2c(=O)n(-c3ccc(O)cc3)c(=S)[nH]c2c1`, the midpoint of inhibition in assay [1], the IC50, lay at 72.8 µM. In assay [3], it took 3.84 µM to reach a half-maximal effect (EC50).

As for `O=c1[nH]c2cc(O)cc(O)c2c(=O)n1-c1ccc(O)cc1`, the IC50 in assay [1] worked out at 9.38 µM; in assay [2], 70.3 µM. In assay [3], this compound registered an EC50 of 1.31 µM.

Regarding `O=c1c2c(O)cc(O)cc2ncn1-c1ccc(O)c(Cl)c1`, the IC50 turned out to be 7.21 µM in assay [1] and 55 µM in assay [2]. For the same compound, a half-maximal response in assay [3] (EC50) required 1.18 µM.

As to `COc1cc(O)cc2ncn(-c3ccc(O)cc3)c(=O)c12`, in assay [3], it took 8.51 µM to reach a half-maximal effect (EC50).

Take `O=c1c2ccc(O)cc2ncn1-c1ccc(O)cc1`: the IC50 worked out at 8.61 µM in assay [1] and 53.6 µM in assay [2]. Also, in assay [3], the midpoint of the response, the EC50, lay at 0.961 µM.

As to `CCCc1c(O)cc2ncn(-c3ccc(O)cc3)c(=O)c2c1O`, the values for the 50% inhibitory concentration (IC50) in assay [1] and in assay [2] were 7.3 µM and 10.6 µM, respectively.

Turning to `O=c1c2ccc(O)cc2nc(-c2ccc(O)cc2)n1-c1ccc(O)cc1`, the IC50 in assay [1] was determined as 441 µM; in assay [2], 48.5 µM.

`O=c1c2c(O)cc(O)cc2ncn1-c1ccc(O)cc1Cl`: the IC50 in assay [1] amounted to 0.263 µM; in assay [2] it was 6.25 µM. This compound also came in with an EC50 in assay [3] of 0.251 µM.

Regarding `CC(C)c1nc2cc(O)cc(O)c2c(=O)n1-c1ccc(O)cc1`, the IC50 came to 48.1 µM in assay [1] and 70.4 µM in assay [2].

Consider `O=c1c2c(O)cc(O)cc2[nH]c(=S)n1-c1ccc(O)cc1`, for which the IC50 was found to be 6.99 µM in assay [1] and 11.1 µM in assay [2]. This compound displayed an EC50 in assay [3] of 1.99 µM.

In the case of `CCOc1cc(O)cc2ncn(-c3ccc(O)cc3)c(=O)c12`, in assay [1], 44.3 µM corresponded to half-maximal inhibition (IC50).

For the compound `CCCCc1nc2cc(O)cc(O)c2c(=O)n1-c1ccc(O)cc1`, the IC50 in assay [1] was 0.249 µM; in assay [2], 0.178 µM.

As to `O=c1c2c(CO)cc(O)cc2ncn1-c1ccc(O)cc1`, the half-maximal inhibitory concentration (IC50) turned out to be 0.024 µM in assay [1] and 0.121 µM in assay [2]. The same compound had an EC50 in assay [3] of 4.46 µM.

As for `Cc1cc(O)cc2ncn(-c3ccc(O)cc3)c(=S)c12`, the results for the 50% inhibitory concentration (IC50) in assay [1] and in assay [2] were 0.079 µM and 1.75 µM, respectively. The EC50 in assay [3] is 0.222 µM.

For the compound `Cc1cc(-n2cnc3cc(O)cc(O)c3c2=O)ccc1O`, the IC50 in assay [1] came to 7.49 µM; in assay [2], 34.6 µM. The compound further registered an EC50 in assay [3] of 1.25 µM.

As to `N#Cc1cc(O)cc2ncn(-c3ccc(O)cc3)c(=O)c12`, it took 73.7 µM to reach half-maximal inhibition in assay [1] (IC50). Moreover, the midpoint of the response in assay [3], the EC50, lay at 7.58 µM.

`CCc1cc(O)cc2ncn(-c3ccc(O)cc3)c(=S)c12`: the IC50 in assay [1] worked out at 0.156 µM; in assay [2], 2.26 µM. In assay [3], this compound displayed an EC50 of 0.053 µM.

For the compound `C=C(C)c1cc(O)cc2ncn(-c3ccc(O)cc3)c(=O)c12`, the IC50 in assay [1] came out at 2.3 µM; in assay [2], 44 µM. This compound also displayed an EC50 in assay [3] of 0.729 µM.

Turning to `O=c1c2c(O)cc(O)cc2ncn1-c1ccc(O)nc1`, the IC50 in assay [1] was 51.7 µM; in assay [2], 66.9 µM. Also, the half-maximal effective concentration (EC50) in assay [3] was 9.76 µM.

For the compound `O=c1c2c(O)cc(O)cc2ncn1-c1ccc(O)cn1`, the IC50 worked out at 3.53 µM in assay [1] and 98 µM in assay [2]. In addition, the EC50 in assay [3] was found to be 0.358 µM.

Turning to `Cc1cc(O)cc2ncn(-c3ccc(O)cc3)c(=O)c12`, the IC50 in assay [1] stood at 0.317 µM; in assay [2] it was 9.63 µM. In assay [3], this compound came in with an EC50 of 0.136 µM.

As for `Oc1cc(O)c2c(=S)n(-c3ccc(O)c(F)c3)cnc2c1`, the IC50 in assay [1] stood at 0.102 µM; in assay [2], 3.08 µM. Also, the 50% effective concentration (EC50) in assay [3] came out at 0.02 µM.

As to `O=c1c2c(O)cc(O)cc2ncn1-c1ccc(O)c(F)c1`, the IC50 was 0.65 µM in assay [1] and 44.2 µM in assay [2]. For the same compound, the EC50 in assay [3] came to 0.117 µM.

Consider `Oc1ccc(-n2cnc3cc(O)cc(O)c3c2=S)cc1`, for which the IC50 in assay [1] was 0.047 µM; in assay [2], 2.64 µM. In addition, the EC50 in assay [3] stood at 0.013 µM.

`COC(=O)c1cc(O)cc2ncn(-c3ccc(O)cc3)c(=O)c12`: the IC50 in assay [1] was 9.54 µM; in assay [2], 81.3 µM. The compound further came in with an EC50 in assay [3] of 9.41 µM.

For the compound `O=c1c2c(O)cc(O)cc2ncn1-c1ccc(O)cc1F`, the IC50 was 0.256 µM in assay [1] and 7.48 µM in assay [2]. For the same compound, a half-maximal effect in assay [3] (EC50) was put at 0.19 µM.
